Measured values reported in ChEMBL document CHEMBL1275411, “Efficacy of SPK-843, a novel polyene antifungal, in comparison with amphotericin B, liposomal amphotericin B, and micafungin against murine pulmonary aspergillosis” (Antimicrob Agents Chemother, 2008).
≈ marks a conversion by molar mass, not a printed value. Calls of active or inactive are those of the source. The rule behind the calls is not given here. *1 amine or outer side, *2 acyl side, *3 side chain or, on linkers, in order; H or OH if unused. Where a SMILES comes first, the peptide text is derived from it. Bridges are numbered along the chain shown (N, C = ends). [ ]: non-standard residue; d: D form. The star is where a group is joined. hTyr(3S-OH,4S-OH,3'-OSO3H) = N[C@H](C(=O)O)[C@H](O)[C@@H](O)c1ccc(O)c(OS(=O)(=O)O)c1; Orn(4R-OH,5R-OH) = O=C([C@H](C[C@@H](O)[C@@H](O)N[*:3])N[*:1])[*:2]; Pro(3S-OH,4S-Me) = C[C@H]1CN[C@H](C(=O)O)[C@H]1O; X1 = CCCCCOc1ccc(-c2cc(-c3ccc(C(=O)*)cc3)no2)cc1; Gln(3R-OH) = NC(=O)C[C@@H](O)[C@H](N)C(=O)O; Hyp = O=C(O)[C@@H]1C[C@@H](O)CN1

Columns and labels:
[1] = system: Aspergillus fumigatus; assay: Antimicrobial activity against Aspergillus fumigatus conidia infected in DBA/2N mouse assessed as increased survival rate at 2 to 4 mg/kg, iv qd for 5 days; assay type: functional, organism-based
[2] = system: Aspergillus fumigatus; assay: Antimicrobial activity against Aspergillus fumigatus MF-13 by broth microdilution method; assay type: functional
[3] = system: Aspergillus flavus; assay: Antimicrobial activity against Aspergillus flavus TIMM 0057 by broth microdilution method; assay type: functional
[4] = system: Mus musculus; assay: Toxicity in Aspergillosis infected DBA/2N mouse assessed as kidney tubular cell necrosis and cast formation at 1 mg/kg, iv qd after 5 days; assay type: organism-based; design: dose 1 mg/kg, route intravenous; settings: in vivo, 120 h
[5] = system: Aspergillus niger; assay: Antimicrobial activity against Aspergillus niger TIMM 2814 by broth microdilution method; assay type: functional
[6] = system: Mus musculus; assay: Toxicity in Aspergillosis infected DBA/2N mouse assessed as histopathological lesions in kidney at 1 mg/kg, iv qd after 5 days; assay type: organism-based; design: dose 1 mg/kg, route intravenous; settings: in vivo, 120 h
[7] = system: Mus musculus; assay: Toxicity in Aspergillosis infected DBA/2N mouse assessed as histopathological lesions in kidney at 4 mg/kg, iv qd after 5 days; assay type: organism-based; design: dose 4 mg/kg, route intravenous; settings: in vivo, 120 h
[8] = system: Aspergillus fumigatus; assay: Antimicrobial activity against Aspergillus fumigatus conidia infected in DBA/2N mouse assessed as increased survival rate at =>[…] mg/kg, iv qd for 5 days; assay type: functional, organism-based
[9] = system: Aspergillus flavus; assay: Antimicrobial activity against Aspergillus flavus conidia infected in DBA/2N mouse assessed as increased survival rate at =>1 mg/kg, iv qd for 5 days; assay type: functional, organism-based
[10] = system: Aspergillus flavus; assay: Antimicrobial activity against Aspergillus flavus conidia infected in iv dosed DBA/2N mouse assessed as increased survival rate measured for 5 days; assay type: functional, organism-based
[11] = system: Aspergillus; assay: Antimicrobial activity against Aspergillus infected in DBA/2N mouse at 1 mg/kg, iv qd for 5 days; assay type: functional, organism-based; design: dose 1 mg/kg
[12] = system: Aspergillus flavus; assay: Antimicrobial activity against Aspergillus flavus infected in DBA/2N mouse at >1 mg/kg, iv qd for 5 days relative to amphotericin B; assay type: functional, organism-based
[13] = system: Mus musculus; assay: Toxicity in DBA/2N mouse infected with Aspergillus at =<1.0 mg/kg, iv qd after 5 days; assay type: organism-based; settings: in vivo, 120 h
[14] = system: Aspergillus fumigatus; assay: Antimicrobial activity against Aspergillus fumigatus infected in DBA/2N mouse at >1 mg/kg, iv qd for 5 days relative to amphotericin B; assay type: functional, organism-based
[15] = system: Aspergillus fumigatus; assay: Antimicrobial activity against Aspergillus fumigatus conidia infected in DBA/2N mouse assessed as increased survival rate at 0.25 to 1 mg/kg, iv qd for 5 days; assay type: functional, organism-based
[16] = system: Aspergillus niger; assay: Antimicrobial activity against Aspergillus niger conidia infected in DBA/2N mouse assessed as increased survival rate at =>0.25 mg/kg, iv qd for 5 days; assay type: functional, organism-based
[17] = system: Aspergillus niger; assay: Antimicrobial activity against Aspergillus niger conidia infected in DBA/2N mouse assessed as increased survival rate at 2 mg/kg, iv qd for 5 days relative to amphotericin B/L-amphotericin B; assay type: functional, organism-based; design: dose 2 mg/kg
[18] = system: Mus musculus; assay: Toxicity in DBA/2N mouse infected with Aspergillus at >1.0 mg/kg, iv qd for 5 days relative to amphotericin B; assay type: organism-based; settings: in vivo, 120 h
[19] = system: Aspergillus; assay: Antimicrobial activity against Aspergillus infected in DBA/2N mouse assessed as increased survival rate at >1 mg/kg, iv qd for 5 days relative to amphotericin B; assay type: functional, organism-based
[20] = system: Aspergillus niger; assay: Antimicrobial activity against Aspergillus niger infected in DBA/2N mouse at >1 mg/kg, iv qd for 5 days relative to amphotericin B; assay type: functional, organism-based
[21] = system: Aspergillus niger; assay: Antimicrobial activity against Aspergillus niger conidia infected in iv dosed DBA/2N mouse assessed as increased survival rate measured for 5 days; assay type: functional, organism-based
[22] = system: Aspergillus flavus; assay: Antimicrobial activity against Aspergillus flavus conidia infected in DBA/2N mouse assessed as increased survival rate at 4 mg/kg, iv qd for 5 days relative to amphotericin B/L-amphotericin B; assay type: functional, organism-based; design: dose 4 mg/kg

Structure (SMILES): C[C@@H]1[C@H](O)[C@@H](C)/C=C/C=C/C=C/C=C/C=C/C=C/C=C/[C@H](O[C@@H]2O[C@H](C)[C@@H](O)[C@H](N)[C@@H]2O)C[C@@H]2O[C@](O)(C[C@@H](O)C[C@@H](O)[C@H](O)CC[C@@H](O)C[C@@H](O)CC(=O)O[C@H]1C)C[C@H](O)[C@H]2C(=O)O [AMPHOTERICIN B]
- Activity [1]: Active
- MIC [2]: 0.25 µg/mL (≈ 0.271 µM)
- MIC [3]: 0.5 µg/mL (≈ 0.541 µM)
- Activity [4]: Toxic
- MIC [5]: 0.25 µg/mL (≈ 0.271 µM)
- Activity [6]: Non-toxic
- Activity [7]: Non-toxic
- Activity [8]: Active

Structure (SMILES): CNc1ccc(C(=O)CC(O)CC[C@H](C)C2OC(=O)C[C@H](O)CC(=O)C[C@H](O)C[C@H](O)C[C@H](O)C[C@H](O)C[C@]3(O)C[C@H](O)[C@@H](C(=O)NCCN(C)C)[C@H](C[C@@H](O[C@@H]4O[C@H](C)[C@@H](O)[C@H](NC(=O)CN(C)C)[C@@H]4O)/C=C/C=C/C=C/C=C/C=C/C=C/C=C/C2C)O3)cc1.O=C1O[C@H]([C@@H](O)CO)C(O)=C1O.O=C1O[C@H]([C@@H](O)CO)C(O)=C1O (some centres not stated)
- Activity [9]: Active
- Activity [10]: Dose-dependent effect
- Activity [11]: inactive
- MIC [2]: 0.5 µg/mL
- Activity [12]: Active
- MIC [3]: 0.25 µg/mL
- Activity [13]: Non-toxic
- MIC [5]: 0.0625 µg/mL
- Activity [14]: Active
- Activity [15]: Active
- Activity [16]: Active
- Activity [17]: Active
- Activity [18]: Non-toxic
- Activity [19]: Active
- Activity [20]: Active
- Activity [21]: Dose-dependent effect
- Activity [8]: Active
- Activity [22]: Active

Structure (SMILES): CCCCCOc1ccc(-c2cc(-c3ccc(C(=O)N[C@H]4C[C@@H](O)[C@@H](O)NC(=O)[C@@H]5[C@@H](O)[C@@H](C)CN5C(=O)[C@H]([C@H](O)CC(N)=O)NC(=O)[C@H]([C@H](O)[C@@H](O)c5ccc(O)c(OS(=O)(=O)O)c5)NC(=O)[C@@H]5C[C@@H](O)CN5C(=O)[C@H]([C@@H](C)O)NC4=O)cc3)no2)cc1 [MICAFUNGIN] (X1-[Orn(4R-OH,5R-OH)]T[Hyp][hTyr(3S-OH,4S-OH,3'-OSO3H)][Gln(3R-OH)][Pro(3S-OH,4S-Me)]; lactam 1-C)
- MIC [2]: 0.0156 µg/mL (≈ 0.0123 µM)
